One test relates to HUVEC. Nature of the test: Calcium imaging, intracellular [Ca2+]i increase in HUVEC. It counts as cell-based, human. Here is the method: HUVECs were plated onto 24-well plates and grown to 70% confluence. To monitor cytosolic Ca^2+ signals, cells were loaded with fluo-3 AM (4 μmol/L; Molecular Probes) and incubated for 40 min at 37° C. in complete medium that contained […] pluronic acid. After washing twice with HEPES buffer that contained (in mmol/L) 1.25 CaCl2, 5.5 D-glucose, 10 HEPES, 5 KCl, 0.5 MgCl2, and 140 NaCl (brought to pH 7.4 with NaOH); the plates were incubated at 37° C. for 15 additional minutes prior to fluorescence imaging. Fluorescence images were acquired every 1 s over the course of 5 min in cells treated with 4α-phorbol-12, 13-didecanoate (4α-PDD; a specific TRPV4 agonist; 10 μmol/L), 5,6-diHETE ((±)5,6-dihydroxy-8Z,11Z,14Z,17Z-eicosatetraenoic acid) 1, 5 lactone (0.01-5 μmol/L) and 5,6-diHETE (hydrolytic isomer of 5,6-EEQ; 2 and 5 μmol/L). The calculated ratio between maximal intensity (F1) and basal intensity (F0) was determine for each experiment and presented as Average±SD.
To investigate the effect of 5,6-diHETE ((±)5,6-dihydroxy-8Z,11Z,14Z,17Z-eicosatetraenoic acid) lactone on cytosolic [Ca^2+]i (FIG. 1), HUVECs were exposed to graded doses of 5,6-diHETE lactone (0.01-5 μmol/L) in ethanol/HEPES buffer, and the intracellular changes in [Ca^2+] were determined by the mean of fluoresces intensity. […] No significant differences in cytosolic [Ca^2+]i levels were detected beyond 0.5 μM lactone. Above this concentration the cytosolic [Ca^2+]i levels reach saturation.
These rapid pathways result in the reduction of epoxide concentrations, and thus, in a decrease in their activity. We therefore tested the ability of the hydrolyzed form compared to the unhydrolyzed form to increase intracellular calcium (FIG. 2).

The next test deals with rat mesenteric arteries. Nature of the test: Relaxation of rat mesenteric arteries from NT and 5/6Nx rats (wire myograph). The note with it: acetylcholine concentration response, n=7-13.
In test [1] the test system is Sprague-Dawley 5/6Nx rats. The test can be described thus: Direct blood pressure measurement in 5/6Nx rats after acute injection. It counts as in vivo, rat. The note with it: 10 mg/kg i.v., given after the lactone. Here is the method:
Direct blood pressure measurements—For direct blood pressure (BP) evaluation, Sprague-Dawley 5/6Nx rats were deeply anesthetized by an injection of 87 mg/kg ketamine and 13 mg/kg xylazine (intramuscular) mixture. Next, the rats were instrumented with a venous line and an arterial line. Specifically, using 26G i.v. cannula (BD Neoflon, Helsinborg, Sweden) we punctured one of the tail veins, and installed the cannula. Next, 1 ml of saline heparin (500 IU/ml) mixture was administered to avoid blood clotting. Concomitantly, we installed the arterial line, after a neck incision we bluntly exposed the right carotid and ligated it distally. Then the artery was clamped proximally and incised between the ligation and the clamp. A 100 PE tube was advanced into the artery and tightened in it by second ligature aimed to avoid blood leakage, and then we removed the arterial clamp. The external tube was attached to a Luer stopcock valve, through which saline could be injected, blood withdrawn and to be connected to a pressure transducer.
Upon connecting and stabilization, signals were continuously sampled at a sampling rate of 200 samples/sec by the MPVS-300 system, recorded.
Basal BP was recorded for 10 min, after which time 0.5 ml 5,6-diHETE lactone (0.3 mg/kg and 3 mg/kg) dissolved in saline+DMSO (9:1) were injected through the venous line, and BP was recorded for additional 10 min after injection. For control, two distinct, known BP lowering agents were used consecutively, labetalol (10 mg/kg) a known a and p adrenergic inhibitor, and amlodipine (1.5 mg/kg) a calcium channel blocker (each by 0.5 ml venous injection). BP was recorded for additional 10 min after each injection. Specifically, after lactone effect recording labetalol was administered and 10 min later the amlodipine. We terminated the experiment by venous administration of 1M KCl overdose, until the heart stopped.

As to `CC/C=C\C/C=C\C/C=C\C/C=C\CC(O)C(O)CCCC(=O)O` (racemic) [5,6-diHETE, (±)5,6-dihydroxy-8Z,11Z,14Z,17Z-eicosatetraenoic acid], the “lowest concentration causing a significant [Ca2+] increase” value with HUVEC is 5 µmol/L. The “changes in cellular [Ca2+]i” value in the test with HUVEC (2 μmol/L) was “not”.
Consider `CC(=O)OCC[N+](C)(C)C` [Acetylcholine, acetylcholine, reference compound], for which the “% relaxation (relative to papaverine)” value with rat mesenteric arteries (5/6Nx vessels) is on record as 63.2±15.6%; in the test on rat mesenteric arteries (NT vessels) it was 94.8±5.5%.
Take `CC(CCc1ccccc1)NCC(O)c1ccc(O)c(C(N)=O)c1` (centres unmarked) [labetalol, reference compound]: the “percent reduction of SBP from baseline” value in test [1] is reported as “about 20%”.

These data come from US12433864B2, “5,6-diHETE lactone for treatment of microvascular dysfunction” (MIGAL GALILEE RESEARCH INSTITUTE LTD., priority 2019, dated 2025).
